{
  "source": "the NIST ThermoML archive (doi:10.1016/j.tca.2008.02.015)",
  "test": "excess molar enthalpy (molar enthalpy of mixing); xn = mol fraction of the nth substance listed",
  "details": "298.15 K, 101 kPa, Liquid, Calvet calorimetry",
  "note": "Numbers after ± are expanded uncertainties.",
  "data": [
    {"smiles": "COP(=O)(OC)OC", "note": "[trimethyl orthophosphate] + CCCCO", "values": [
      {"measurement": "excess molar enthalpy", "setting": "x1 = 0.0497", "result": "0.0957 ± 0.00127", "unit": "kcal/mol"},
      {"measurement": "excess molar enthalpy", "setting": "x1 = 0.1005", "result": "0.176 ± 0.00225", "unit": "kcal/mol"},
      {"measurement": "excess molar enthalpy", "setting": "x1 = 0.1531", "result": "0.24 ± 0.00311", "unit": "kcal/mol"},
      {"measurement": "excess molar enthalpy", "setting": "x1 = 0.2071", "result": "0.292 ± 0.00359", "unit": "kcal/mol"},
      {"measurement": "excess molar enthalpy", "setting": "x1 = 0.2625", "result": "0.322 ± 0.00406", "unit": "kcal/mol"},
      {"measurement": "excess molar enthalpy", "setting": "x1 = 0.3199", "result": "0.344 ± 0.0043", "unit": "kcal/mol"},
      {"measurement": "excess molar enthalpy", "setting": "x1 = 0.3794", "result": "0.353 ± 0.00454", "unit": "kcal/mol"},
      {"measurement": "excess molar enthalpy", "setting": "x1 = 0.439", "result": "0.351 ± 0.0043", "unit": "kcal/mol"},
      {"measurement": "excess molar enthalpy", "setting": "x1 = 0.5024", "result": "0.345 ± 0.0043", "unit": "kcal/mol"},
      {"measurement": "excess molar enthalpy", "setting": "x1 = 0.5663", "result": "0.329 ± 0.00406", "unit": "kcal/mol"},
      {"measurement": "excess molar enthalpy", "setting": "x1 = 0.6329", "result": "0.311 ± 0.00382", "unit": "kcal/mol"},
      {"measurement": "excess molar enthalpy", "setting": "x1 = 0.7016", "result": "0.271 ± 0.00335", "unit": "kcal/mol"},
      {"measurement": "excess molar enthalpy", "setting": "x1 = 0.7727", "result": "0.222 ± 0.00287", "unit": "kcal/mol"},
      {"measurement": "excess molar enthalpy", "setting": "x1 = 0.8458", "result": "0.162 ± 0.00208", "unit": "kcal/mol"},
      {"measurement": "excess molar enthalpy", "setting": "x1 = 0.9216", "result": "0.088 ± 0.0012", "unit": "kcal/mol"}
    ]},
    {"smiles": "COP(=O)(OC)OC", "note": "[trimethyl orthophosphate] + CO", "values": [
      {"measurement": "excess molar enthalpy", "setting": "x1 = 0.037", "result": "0.0118 ± 0.000287", "unit": "kcal/mol"},
      {"measurement": "excess molar enthalpy", "setting": "x1 = 0.0739", "result": "0.0211 ± 0.000382", "unit": "kcal/mol"},
      {"measurement": "excess molar enthalpy", "setting": "x1 = 0.1033", "result": "0.0268 ± 0.000454", "unit": "kcal/mol"},
      {"measurement": "excess molar enthalpy", "setting": "x1 = 0.1428", "result": "0.0329 ± 0.000526", "unit": "kcal/mol"},
      {"measurement": "excess molar enthalpy", "setting": "x1 = 0.1876", "result": "0.0357 ± 0.00055", "unit": "kcal/mol"},
      {"measurement": "excess molar enthalpy", "setting": "x1 = 0.2569", "result": "0.054 ± 0.000765", "unit": "kcal/mol"},
      {"measurement": "excess molar enthalpy", "setting": "x1 = 0.3086", "result": "0.0508 ± 0.000741", "unit": "kcal/mol"},
      {"measurement": "excess molar enthalpy", "setting": "x1 = 0.3658", "result": "0.048 ± 0.000693", "unit": "kcal/mol"},
      {"measurement": "excess molar enthalpy", "setting": "x1 = 0.4047", "result": "0.0444 ± 0.000645", "unit": "kcal/mol"},
      {"measurement": "excess molar enthalpy", "setting": "x1 = 0.4619", "result": "0.0414 ± 0.000621", "unit": "kcal/mol"},
      {"measurement": "excess molar enthalpy", "setting": "x1 = 0.51", "result": "0.0352 ± 0.00055", "unit": "kcal/mol"},
      {"measurement": "excess molar enthalpy", "setting": "x1 = 0.562", "result": "0.0302 ± 0.000478", "unit": "kcal/mol"},
      {"measurement": "excess molar enthalpy", "setting": "x1 = 0.6405", "result": "0.0236 ± 0.000406", "unit": "kcal/mol"},
      {"measurement": "excess molar enthalpy", "setting": "x1 = 0.7079", "result": "0.0156 ± 0.000311", "unit": "kcal/mol"},
      {"measurement": "excess molar enthalpy", "setting": "x1 = 0.783", "result": "0.0102 ± 0.000263", "unit": "kcal/mol"},
      {"measurement": "excess molar enthalpy", "setting": "x1 = 0.8383", "result": "0.00676 ± 0.000239", "unit": "kcal/mol"},
      {"measurement": "excess molar enthalpy", "setting": "x1 = 0.9", "result": "0.00333 ± 0.000213", "unit": "kcal/mol"},
      {"measurement": "excess molar enthalpy", "setting": "x1 = 0.9647", "result": "0.000473 ± 0.000191", "unit": "kcal/mol"}
    ]},
    {"smiles": "COP(=O)(OC)OC", "note": "[trimethyl orthophosphate] + CCO", "values": [
      {"measurement": "excess molar enthalpy", "setting": "x1 = 0.0322", "result": "0.0369 ± 0.000574", "unit": "kcal/mol"},
      {"measurement": "excess molar enthalpy", "setting": "x1 = 0.0665", "result": "0.0735 ± 0.001", "unit": "kcal/mol"},
      {"measurement": "excess molar enthalpy", "setting": "x1 = 0.1032", "result": "0.109 ± 0.00143", "unit": "kcal/mol"},
      {"measurement": "excess molar enthalpy", "setting": "x1 = 0.1426", "result": "0.132 ± 0.00172", "unit": "kcal/mol"},
      {"measurement": "excess molar enthalpy", "setting": "x1 = 0.185", "result": "0.151 ± 0.00196", "unit": "kcal/mol"},
      {"measurement": "excess molar enthalpy", "setting": "x1 = 0.2305", "result": "0.168 ± 0.00215", "unit": "kcal/mol"},
      {"measurement": "excess molar enthalpy", "setting": "x1 = 0.2796", "result": "0.179 ± 0.00229", "unit": "kcal/mol"},
      {"measurement": "excess molar enthalpy", "setting": "x1 = 0.3327", "result": "0.197 ± 0.00263", "unit": "kcal/mol"},
      {"measurement": "excess molar enthalpy", "setting": "x1 = 0.3671", "result": "0.208 ± 0.00263", "unit": "kcal/mol"},
      {"measurement": "excess molar enthalpy", "setting": "x1 = 0.4156", "result": "0.209 ± 0.00263", "unit": "kcal/mol"},
      {"measurement": "excess molar enthalpy", "setting": "x1 = 0.454", "result": "0.205 ± 0.00263", "unit": "kcal/mol"},
      {"measurement": "excess molar enthalpy", "setting": "x1 = 0.5232", "result": "0.192 ± 0.00239", "unit": "kcal/mol"},
      {"measurement": "excess molar enthalpy", "setting": "x1 = 0.6", "result": "0.171 ± 0.0022", "unit": "kcal/mol"},
      {"measurement": "excess molar enthalpy", "setting": "x1 = 0.6836", "result": "0.144 ± 0.00186", "unit": "kcal/mol"},
      {"measurement": "excess molar enthalpy", "setting": "x1 = 0.7775", "result": "0.111 ± 0.00146", "unit": "kcal/mol"},
      {"measurement": "excess molar enthalpy", "setting": "x1 = 0.8821", "result": "0.0625 ± 0.000884", "unit": "kcal/mol"},
      {"measurement": "excess molar enthalpy", "setting": "x1 = 0.928", "result": "0.0422 ± 0.000621", "unit": "kcal/mol"},
      {"measurement": "excess molar enthalpy", "setting": "x1 = 0.9752", "result": "0.021 ± 0.000382", "unit": "kcal/mol"}
    ]},
    {"smiles": "COP(=O)(OC)OC", "note": "[trimethyl orthophosphate] + CCCO", "values": [
      {"measurement": "excess molar enthalpy", "setting": "x1 = 0.0408", "result": "0.0654 ± 0.000908", "unit": "kcal/mol"},
      {"measurement": "excess molar enthalpy", "setting": "x1 = 0.0836", "result": "0.126 ± 0.00165", "unit": "kcal/mol"},
      {"measurement": "excess molar enthalpy", "setting": "x1 = 0.1284", "result": "0.173 ± 0.00222", "unit": "kcal/mol"},
      {"measurement": "excess molar enthalpy", "setting": "x1 = 0.1753", "result": "0.212 ± 0.00263", "unit": "kcal/mol"},
      {"measurement": "excess molar enthalpy", "setting": "x1 = 0.225", "result": "0.235 ± 0.00287", "unit": "kcal/mol"},
      {"measurement": "excess molar enthalpy", "setting": "x1 = 0.2769", "result": "0.256 ± 0.00335", "unit": "kcal/mol"},
      {"measurement": "excess molar enthalpy", "setting": "x1 = 0.3319", "result": "0.279 ± 0.00359", "unit": "kcal/mol"},
      {"measurement": "excess molar enthalpy", "setting": "x1 = 0.39", "result": "0.293 ± 0.00359", "unit": "kcal/mol"},
      {"measurement": "excess molar enthalpy", "setting": "x1 = 0.4508", "result": "0.296 ± 0.00382", "unit": "kcal/mol"},
      {"measurement": "excess molar enthalpy", "setting": "x1 = 0.5139", "result": "0.282 ± 0.00359", "unit": "kcal/mol"},
      {"measurement": "excess molar enthalpy", "setting": "x1 = 0.5701", "result": "0.27 ± 0.00335", "unit": "kcal/mol"},
      {"measurement": "excess molar enthalpy", "setting": "x1 = 0.6274", "result": "0.246 ± 0.00311", "unit": "kcal/mol"},
      {"measurement": "excess molar enthalpy", "setting": "x1 = 0.6875", "result": "0.219 ± 0.00287", "unit": "kcal/mol"},
      {"measurement": "excess molar enthalpy", "setting": "x1 = 0.7351", "result": "0.197 ± 0.00263", "unit": "kcal/mol"},
      {"measurement": "excess molar enthalpy", "setting": "x1 = 0.7834", "result": "0.167 ± 0.00215", "unit": "kcal/mol"},
      {"measurement": "excess molar enthalpy", "setting": "x1 = 0.8518", "result": "0.117 ± 0.00153", "unit": "kcal/mol"},
      {"measurement": "excess molar enthalpy", "setting": "x1 = 0.9054", "result": "0.0789 ± 0.00108", "unit": "kcal/mol"},
      {"measurement": "excess molar enthalpy", "setting": "x1 = 0.9614", "result": "0.0416 ± 0.000621", "unit": "kcal/mol"}
    ]}
  ]
}
